Source: patent publication US20260217701A1, “SELECTIVE BET INHIBITORS AND USES THEREOF” (Tay Therapeutics Limited, priority 2022, published 2026)
Marks after values point to notes of the source that are not given here.

System: experimental autoimmune encephalomyelitis
Assay: Experimental autoimmune encephalomyelitis (EAE) model: EAE scores, onset, incidence
Type: in vivo, C57BI/6 mice
Protocol: Experimental Method H: EAE in animals treated with a BET inhibitor and vehicle. Animals were assigned to the groups outlined in Table 38.
Compound A may be formulated as illustrated in Experimental Method A (see Table 2E.). A 40 mg/mL stock solution of Compound A in DMSO was prepared and aliquots stored at −20° C. On each day of preparation an e.g., 0.75 mL aliquot of thawed stock was diluted with an equal volume of DMSO. The remaining vehicle components were added to provide the highest dose and then diluted with vehicle to provide lower doses. A 30 mg/mL stock solution of FTY720 in ethanol was prepared and stored at −20° C. Daily, the stock solution was diluted with room temperature water to a final dosing concentration of 0.6 mg/mL. Formulated Compound A, FTY720 and vehicle were each at room temperature for dosing.
Female C57BI/6 mice (9 weeks old) were acclimated for seven days prior to study initiation. On Day-1, animals were assigned to groups in a balanced manner to achieve similar average weights across the different groups. Chronic EAE was induced in female C57BI/6 mice following immunization with an emulsion of MOG35-55/CFA on Day 0, followed by an injection of pertussis toxin two hours after the initial immunization. On Day 1, a second injection of pertussis toxin was administered 24 hours after the initial immunization. Mice were injected subcutaneously at two sites on the back with the MOG35-55/CFA emulsion (Hooke Kit™ MOG35-55/CFA Emulsion PTX). The first injection site was located approximately 1 cm caudal of the neckline (upper back), and the second injection site was approximately 2 cm cranial of the base of the tail (lower back). The injection volume was 0.1 mL for each injection. The pertussis toxin was administered at the described times through intraperitoneal injection at a concentration of 85 ng/dose for both injections.
Body weight was measured three times a week (Monday, Wednesday, and Friday) starting on Day-1. Animals were scored daily for EAE starting on Day 7. In-between scores were assigned when the clinical signs fell between two below defined scores.

[1] = all animals receiving Compound A

Cn1cc(-c2ccccc2)c(-c2cn(C)c(=O)c3[nH]c(-c4cnn(C(F)(F)F)c4)cc23)cc1=O [Compound A, 6-methyl-4-(1-methyl-2-oxo-5-phenyl-1,2-dihydropyridin-4-yl)-2-(1-(trifluoromethyl)-1H-pyrazol-4-yl)-1,6-dihydro-7H-pyrrolo[2,3-c]pyridin-7-one]
EAE incidence rate (1 mg/kg (lowest dose)): 100% | Mean maximum EAE scores relative to vehicle (1 mg/kg, 3 mg/kg and 10 mg/kg): significantly reduced mean maximum scores | EAE incidence rate (3 mg/kg): 91.7% | EAE incidence rate (10 mg/kg): 83.3% | Incidence of EAE (%) (Compound A 1 mg/kg (Group 2)): 100% | Mean Day of Onset (SEM) (Compound A 1 mg/kg (Group 2)): 14.5 (0.9) Day | Mean End Score (SEM) (Compound A 1 mg/kg (Group 2)): 1.05 (0.35)* | Mean Maximum Score (SEM) (Compound A 1 mg/kg (Group 2)): 2.18 (0.25)* | Median Day of Onset (Compound A 1 mg/kg (Group 2)): 13.0 days | Mean EAE score (Compound A 1 mg/kg (Group 2), Day 7): 0.00 | Mean EAE score (Compound A 1 mg/kg (Group 2), Day 8): 0.00 | Mean EAE score (Compound A 1 mg/kg (Group 2), Day 9): 0.00 | Mean EAE score (Compound A 1 mg/kg (Group 2), Day 10): 0.00 | Mean EAE score (Compound A 1 mg/kg (Group 2), Day 11): 0.05 | Mean EAE score (Compound A 1 mg/kg (Group 2), Day 12): 0.18 | Mean EAE score (Compound A 1 mg/kg (Group 2), Day 13): 0.55 | Mean EAE score (Compound A 1 mg/kg (Group 2), Day 14): 0.95 | Mean EAE score (Compound A 1 mg/kg (Group 2), Day 15): 1.27 | Mean EAE score (Compound A 1 mg/kg (Group 2), Day 16): 1.45 | Mean EAE score (Compound A 1 mg/kg (Group 2), Day 17): 1.73 | Mean EAE score (Compound A 1 mg/kg (Group 2), Day 18): 1.68 | Mean EAE score (Compound A 1 mg/kg (Group 2), Day 19): 1.68 | Mean EAE score (Compound A 1 mg/kg (Group 2), Day 20): 1.55 | Mean EAE score (Compound A 1 mg/kg (Group 2), Day 21): 1.64 | Mean EAE score (Compound A 1 mg/kg (Group 2), Day 22): 1.32 | Mean EAE score (Compound A 1 mg/kg (Group 2), Day 23): 1.23 | Mean EAE score (Compound A 1 mg/kg (Group 2), Day 24): 1.23 | Mean EAE score (Compound A 1 mg/kg (Group 2), Day 25): 1.09 | Mean EAE score (Compound A 1 mg/kg (Group 2), Day 26): 1.14 | Mean EAE score (Compound A 1 mg/kg (Group 2), Day 27): 1.09 | Mean EAE score (Compound A 1 mg/kg (Group 2), Day 28): 1.05 | Incidence of EAE (%) (Compound A 3 mg/kg (Group 3)): 91.7% | Mean Day of Onset (SEM) (Compound A 3 mg/kg (Group 3)): 14.2 (0.4) Day | Mean End Score (SEM) (Compound A 3 mg/kg (Group 3)): 0.73 (0.26)** | Mean Maximum Score (SEM) (Compound A 3 mg/kg (Group 3)): 1.77 (0.23)*** | Median Day of Onset (Compound A 3 mg/kg (Group 3)): 14.0 days | Mean EAE score (Compound A 3 mg/kg (Group 3), Day 7): 0.00 | Mean EAE score (Compound A 3 mg/kg (Group 3), Day 8): 0.00 | Mean EAE score (Compound A 3 mg/kg (Group 3), Day 9): 0.00 | Mean EAE score (Compound A 3 mg/kg (Group 3), Day 10): 0.00 | Mean EAE score (Compound A 3 mg/kg (Group 3), Day 11): 0.00 | Mean EAE score (Compound A 3 mg/kg (Group 3), Day 12): 0.00 | Mean EAE score (Compound A 3 mg/kg (Group 3), Day 13): 0.29 | Mean EAE score (Compound A 3 mg/kg (Group 3), Day 14): 0.63 | Mean EAE score (Compound A 3 mg/kg (Group 3), Day 15): 0.88 | Mean EAE score (Compound A 3 mg/kg (Group 3), Day 16): 1.29 | Mean EAE score (Compound A 3 mg/kg (Group 3), Day 17): 1.67 | Mean EAE score (Compound A 3 mg/kg (Group 3), Day 18): 1.54 | Mean EAE score (Compound A 3 mg/kg (Group 3), Day 19): 1.18 | Mean EAE score (Compound A 3 mg/kg (Group 3), Day 20): 1.23 | Mean EAE score (Compound A 3 mg/kg (Group 3), Day 21): 1.18 | Mean EAE score (Compound A 3 mg/kg (Group 3), Day 22): 0.95 | Mean EAE score (Compound A 3 mg/kg (Group 3), Day 23): 0.91 | Mean EAE score (Compound A 3 mg/kg (Group 3), Day 24): 0.91 | Mean EAE score (Compound A 3 mg/kg (Group 3), Day 25): 0.95 | Mean EAE score (Compound A 3 mg/kg (Group 3), Day 26): 0.95 | Mean EAE score (Compound A 3 mg/kg (Group 3), Day 27): 0.95 | Mean EAE score (Compound A 3 mg/kg (Group 3), Day 28): 0.73 | Incidence of EAE (%) (Compound A 10 mg/kg (Group 4)): 83.3% | Mean Day of Onset (SEM) (Compound A 10 mg/kg (Group 4)): 13.4 (0.6) Day | Mean End Score (SEM) (Compound A 10 mg/kg (Group 4)): 0.29 (0.13)*** | Mean Maximum Score (SEM) (Compound A 10 mg/kg (Group 4)): 1.67 (0.28)*** | Median Day of Onset (Compound A 10 mg/kg (Group 4)): 13.0 days | Mean EAE score (Compound A 10 mg/kg (Group 4), Day 7): 0.00 | Mean EAE score (Compound A 10 mg/kg (Group 4), Day 8): 0.00 | Mean EAE score (Compound A 10 mg/kg (Group 4), Day 9): 0.00 | Mean EAE score (Compound A 10 mg/kg (Group 4), Day 10): 0.00 | Mean EAE score (Compound A 10 mg/kg (Group 4), Day 11): 0.04 | Mean EAE score (Compound A 10 mg/kg (Group 4), Day 12): 0.21 | Mean EAE score (Compound A 10 mg/kg (Group 4), Day 13): 0.83 | Mean EAE score (Compound A 10 mg/kg (Group 4), Day 14): 1.04 | Mean EAE score (Compound A 10 mg/kg (Group 4), Day 15): 1.33 | Mean EAE score (Compound A 10 mg/kg (Group 4), Day 16): 1.46 | Mean EAE score (Compound A 10 mg/kg (Group 4), Day 17): 1.46 | Mean EAE score (Compound A 10 mg/kg (Group 4), Day 18): 1.54 | Mean EAE score (Compound A 10 mg/kg (Group 4), Day 19): 1.21 | Mean EAE score (Compound A 10 mg/kg (Group 4), Day 20): 1.13 | Mean EAE score (Compound A 10 mg/kg (Group 4), Day 21): 1.17 | Mean EAE score (Compound A 10 mg/kg (Group 4), Day 22): 0.75 | Mean EAE score (Compound A 10 mg/kg (Group 4), Day 23): 0.71 | Mean EAE score (Compound A 10 mg/kg (Group 4), Day 24): 0.63 | Mean EAE score (Compound A 10 mg/kg (Group 4), Day 25): 0.46 | Mean EAE score (Compound A 10 mg/kg (Group 4), Day 26): 0.50 | Mean EAE score (Compound A 10 mg/kg (Group 4), Day 27): 0.46 | Mean EAE score (Compound A 10 mg/kg (Group 4), Day 28): 0.29 | Mean EAE score compared to positive control FTY720 (Day 28, 10 mg/kg): comparable mean EAE score | Day on which EAE scores peaked [1]: ~17 days | Mean end EAE scores relative to vehicle [1]: significantly reduced mean end scores | Mean day of onset of EAE compared with vehicle (all doses): similar
